Assay results published in PubChem BioAssay (NCI).
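Five concentrations, 48 hours, 96-well plates. GI50: concentration for 50% inhibition of growth. TGI marks complete inhibition of growth.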

Tested on: SF-539 CNS
Assay: growth of human tumour cells (NCI), 48 h

Compound | TGI [µM] | GI50 [µM]
CC(C)(C)N1CC2(CCCCC2)C1=O | > 100 | 
O=C(O)c1ccccc1-c1ccccc1C(=O)Nc1ccc2c(c1)Cc1cc(F)ccc1-2 | > 100 | 
Cc1cc(NC(=O)c2ccc(C)c(Nc3nccc(-c4cccnc4)n3)c2)cc(-n2cnc(C)c2)c1 | 9.27 | 2.09
O=C(O)c1c(-c2nccc3ccccc23)[nH]c(-c2ccccc2)c1S(=O)(=O)O | > 100 | 
Cc1[nH]n(-c2cccc(Cl)c2)c(=O)c1/C=C1\C=Nc2ccc(Br)cc21 | 16.7 | 4.32
CC(=O)c1c(CBr)n([O-])c2ccccc2[n+]1=O | 24 | 11.2
CCN(CC)CCNCC(=O)Oc1ccc(/C=C/C(=O)CC(=O)/C=C/c2ccc(OC(=O)CNCCN(CC)CC)c(OC)c2)cc1OC | 6.74 | 2.59
NC1CCCC[C@H]1N.N[C@@H]1CCCC[C@@H]1N.O=C(P(=O)([O-])[O-])P(=O)([O-])[O-].[Pt+4].[Pt+4] | > 100 | > 100
O=C(O)Cc1c(O)ccc2ccccc12 | > 100 | 
Cc1ccc(Nc2nc(N)c(C(=O)c3ccc(C#N)cc3)s2)cc1 | 2.85 | 0.312
CN1CCc2c(Sc3ccc(C(=O)NO)cc3)c3ccccc3n2C1 | 3.11 | 1.42
CC(=O)O[C@@H]1C[C@]2(C(C)C)O[C@@]1(C)[C@@H]1CCC(C)=C1[C@@H]2OC(=O)/C=C/c1ccccc1 | > 100 | > 100
NC(N)=N/N=C/c1cc(Cl)cc(Cl)c1O | > 100 | 
c1ccc2c3ccn4cc5c(cc4c-3nc2c1)CCCC5 | 17.1 | 3.4
CCN1C(=O)N(CC)C2C1NC(=S)N2/N=C/C=C/c1cccs1 (stereo not drawn) | 0.666 | 0.226
COc1ccc(C(=O)C(CO)Oc2ccccc2OC)cc1OC (stereo not drawn) | > 100 | 

Tested on: HT29 colon
Assay: growth of human tumour cells (NCI), 48 h

Compound | TGI [µM] | GI50 [µM]
CC(C)(C)N1CC2(CCCCC2)C1=O | > 100 | 
O=C(O)c1ccccc1-c1ccccc1C(=O)Nc1ccc2c(c1)Cc1cc(F)ccc1-2 | > 100 | 
Cc1cc(NC(=O)c2ccc(C)c(Nc3nccc(-c4cccnc4)n3)c2)cc(-n2cnc(C)c2)c1 | 5.33 | 1.73
O=C(O)c1c(-c2nccc3ccccc23)[nH]c(-c2ccccc2)c1S(=O)(=O)O | > 100 | 
Cc1[nH]n(-c2cccc(Cl)c2)c(=O)c1/C=C1\C=Nc2ccc(Br)cc21 | > 100 | 4.5
CC(=O)c1c(CBr)n([O-])c2ccccc2[n+]1=O | 25.9 | 8.34
CCN(CC)CCNCC(=O)Oc1ccc(/C=C/C(=O)CC(=O)/C=C/c2ccc(OC(=O)CNCCN(CC)CC)c(OC)c2)cc1OC | 6.02 | 2.36
NC1CCCC[C@H]1N.N[C@@H]1CCCC[C@@H]1N.O=C(P(=O)([O-])[O-])P(=O)([O-])[O-].[Pt+4].[Pt+4] | > 100 | 70.9
O=C(O)Cc1c(O)ccc2ccccc12 | > 100 | 
Cc1ccc(Nc2nc(N)c(C(=O)c3ccc(C#N)cc3)s2)cc1 | > 90.2 | 0.25
CN1CCc2c(Sc3ccc(C(=O)NO)cc3)c3ccccc3n2C1 | 12.2 | 2.83
CC(=O)O[C@@H]1C[C@]2(C(C)C)O[C@@]1(C)[C@@H]1CCC(C)=C1[C@@H]2OC(=O)/C=C/c1ccccc1 | > 100 | 30.6
NC(N)=N/N=C/c1cc(Cl)cc(Cl)c1O | > 100 | 
c1ccc2c3ccn4cc5c(cc4c-3nc2c1)CCCC5 | 13 | 2.55
CCN1C(=O)N(CC)C2C1NC(=S)N2/N=C/C=C/c1cccs1 (stereo not drawn) | > 100 | 0.352
COc1ccc(C(=O)C(CO)Oc2ccccc2OC)cc1OC (stereo not drawn) | > 100 | 

Tested on: UACC-257 melanoma
Assay: growth of human tumour cells (NCI), 48 h

Compound | TGI [µM] | GI50 [µM]
CC(C)(C)N1CC2(CCCCC2)C1=O | > 100 | 
O=C(O)c1ccccc1-c1ccccc1C(=O)Nc1ccc2c(c1)Cc1cc(F)ccc1-2 | 52.2 | 
Cc1cc(NC(=O)c2ccc(C)c(Nc3nccc(-c4cccnc4)n3)c2)cc(-n2cnc(C)c2)c1 | 5.92 | 1.53
O=C(O)c1c(-c2nccc3ccccc23)[nH]c(-c2ccccc2)c1S(=O)(=O)O | > 100 | 
Cc1[nH]n(-c2cccc(Cl)c2)c(=O)c1/C=C1\C=Nc2ccc(Br)cc21 | > 100 | 85.7
CC(=O)c1c(CBr)n([O-])c2ccccc2[n+]1=O | 32.9 | 16.7
CCN(CC)CCNCC(=O)Oc1ccc(/C=C/C(=O)CC(=O)/C=C/c2ccc(OC(=O)CNCCN(CC)CC)c(OC)c2)cc1OC | 16.9 | 3.58
NC1CCCC[C@H]1N.N[C@@H]1CCCC[C@@H]1N.O=C(P(=O)([O-])[O-])P(=O)([O-])[O-].[Pt+4].[Pt+4] | > 100 | > 100
O=C(O)Cc1c(O)ccc2ccccc12 | > 100 | 
Cc1ccc(Nc2nc(N)c(C(=O)c3ccc(C#N)cc3)s2)cc1 | > 100 | 33.3
CN1CCc2c(Sc3ccc(C(=O)NO)cc3)c3ccccc3n2C1 | 9.1 | 1.75
CC(=O)O[C@@H]1C[C@]2(C(C)C)O[C@@]1(C)[C@@H]1CCC(C)=C1[C@@H]2OC(=O)/C=C/c1ccccc1 | > 100 | 27.8
NC(N)=N/N=C/c1cc(Cl)cc(Cl)c1O | > 100 | 
c1ccc2c3ccn4cc5c(cc4c-3nc2c1)CCCC5 | 38.2 | 5.42
CCN1C(=O)N(CC)C2C1NC(=S)N2/N=C/C=C/c1cccs1 (stereo not drawn) | > 100 | 
COc1ccc(C(=O)C(CO)Oc2ccccc2OC)cc1OC (stereo not drawn) | > 100 | 

Tested on: M14 melanoma
Assay: growth of human tumour cells (NCI), 48 h

Compound | TGI [µM] | GI50 [µM]
CC(C)(C)N1CC2(CCCCC2)C1=O | > 100 | 
O=C(O)c1ccccc1-c1ccccc1C(=O)Nc1ccc2c(c1)Cc1cc(F)ccc1-2 | 40 | 
Cc1cc(NC(=O)c2ccc(C)c(Nc3nccc(-c4cccnc4)n3)c2)cc(-n2cnc(C)c2)c1 | 10.1 | 2.71
O=C(O)c1c(-c2nccc3ccccc23)[nH]c(-c2ccccc2)c1S(=O)(=O)O | > 100 | 
Cc1[nH]n(-c2cccc(Cl)c2)c(=O)c1/C=C1\C=Nc2ccc(Br)cc21 | > 100 | 14.1
CC(=O)c1c(CBr)n([O-])c2ccccc2[n+]1=O | 25.6 | 12.1
CCN(CC)CCNCC(=O)Oc1ccc(/C=C/C(=O)CC(=O)/C=C/c2ccc(OC(=O)CNCCN(CC)CC)c(OC)c2)cc1OC | 11 | 2.82
NC1CCCC[C@H]1N.N[C@@H]1CCCC[C@@H]1N.O=C(P(=O)([O-])[O-])P(=O)([O-])[O-].[Pt+4].[Pt+4] | > 100 | > 100
O=C(O)Cc1c(O)ccc2ccccc12 | > 100 | 
Cc1ccc(Nc2nc(N)c(C(=O)c3ccc(C#N)cc3)s2)cc1 | > 100 | 0.308
CN1CCc2c(Sc3ccc(C(=O)NO)cc3)c3ccccc3n2C1 | 4.53 | 1.81
CC(=O)O[C@@H]1C[C@]2(C(C)C)O[C@@]1(C)[C@@H]1CCC(C)=C1[C@@H]2OC(=O)/C=C/c1ccccc1 | > 100 | 40.1
NC(N)=N/N=C/c1cc(Cl)cc(Cl)c1O | > 100 | 
c1ccc2c3ccn4cc5c(cc4c-3nc2c1)CCCC5 | 6.41 | 
CCN1C(=O)N(CC)C2C1NC(=S)N2/N=C/C=C/c1cccs1 (stereo not drawn) | 17.6 | 0.241
COc1ccc(C(=O)C(CO)Oc2ccccc2OC)cc1OC (stereo not drawn) | > 100 | 

Tested on: A549 NSCLC
Assay: growth of human tumour cells (NCI), 48 h

Compound | TGI [µM] | GI50 [µM]
CC(C)(C)N1CC2(CCCCC2)C1=O | > 100 | 
O=C(O)c1ccccc1-c1ccccc1C(=O)Nc1ccc2c(c1)Cc1cc(F)ccc1-2 | 85.9 | 
Cc1cc(NC(=O)c2ccc(C)c(Nc3nccc(-c4cccnc4)n3)c2)cc(-n2cnc(C)c2)c1 | 8.7 | 0.492
O=C(O)c1c(-c2nccc3ccccc23)[nH]c(-c2ccccc2)c1S(=O)(=O)O | > 100 | 
Cc1[nH]n(-c2cccc(Cl)c2)c(=O)c1/C=C1\C=Nc2ccc(Br)cc21 | 5.68 | 2.27
CC(=O)c1c(CBr)n([O-])c2ccccc2[n+]1=O | 57 | 23.1
CCN(CC)CCNCC(=O)Oc1ccc(/C=C/C(=O)CC(=O)/C=C/c2ccc(OC(=O)CNCCN(CC)CC)c(OC)c2)cc1OC | 39.8 | 6.73
NC1CCCC[C@H]1N.N[C@@H]1CCCC[C@@H]1N.O=C(P(=O)([O-])[O-])P(=O)([O-])[O-].[Pt+4].[Pt+4] | > 100 | > 100
O=C(O)Cc1c(O)ccc2ccccc12 | > 100 | 
Cc1ccc(Nc2nc(N)c(C(=O)c3ccc(C#N)cc3)s2)cc1 | > 76.6 | 0.739
CN1CCc2c(Sc3ccc(C(=O)NO)cc3)c3ccccc3n2C1 | 12.9 | 3.29
CC(=O)O[C@@H]1C[C@]2(C(C)C)O[C@@]1(C)[C@@H]1CCC(C)=C1[C@@H]2OC(=O)/C=C/c1ccccc1 | > 100 | 47
NC(N)=N/N=C/c1cc(Cl)cc(Cl)c1O | > 100 | 
c1ccc2c3ccn4cc5c(cc4c-3nc2c1)CCCC5 | 32.6 | 9.19
CCN1C(=O)N(CC)C2C1NC(=S)N2/N=C/C=C/c1cccs1 (stereo not drawn) | > 100 | 0.508
COc1ccc(C(=O)C(CO)Oc2ccccc2OC)cc1OC (stereo not drawn) | > 100 | 
